The text below walks through data of US5424290A, “Biologically active peptides and uses therefor” (Magainin Pharmaceuticals Inc., priority 1992, dated 1995).

The structures appear in SMILES notation. Residues, ends and D or L forms follow the SMILES beside them.

Holding throughout (format): cell-based
Experiment [1] deals with P. aeruginosa strain ATCC 27853. Briefly: Minimal Inhibitory Concentration, microtiter broth dilution antibacterial assay. The note with it: P. aeruginosa ATCC 27853; Mueller Hinton broth; 16-20 hours at 37° C.; lowest concentration giving a clear well. The text has this:
(§1) Table I, which follows, indicates the Minimal Inhibitory Concentration (MIC) in μg/ml of Peptides (SEQ ID NO:1) through (SEQ ID NO:4), (SEQ ID NO:6) through (SEQ ID NO:13), (SEQ ID NO:16), (SEQ ID NO:20), (SEQ ID NO:21) and (SEQ ID NO:23) against S. aureus strain ATCC 25923, P. aeruginosa strain ATCC 27853, E. coli strain 25922, and Candida albicans. The procedure for the antibacterial assay is based upon the guidelines of the National Committee for Clinical Laboratory Standards, Document M7-T2, Volume 8, No. 8, 1988. Stock solutions of the peptides hereinabove mentioned are prepared at a concentration of 512 μg/ml in sterile deionized distilled water and stored at […]. Each peptide is a C-terminal amide and may or may not be acetylated at the N-terminus. An acetyl group at the N-terminus is indicated by an X. The stock peptide solution is diluted in serial dilutions (1:2) down the wells of a microtiter plate so that the final concentrations of peptides in the wells are 0.25, 0.50, 1, 2, 4, 8, 16, 32, 64, 128, and 256 μg/ml. 1-5×10^5 CFUs/ml of either S. aureus ATCC 25923, E. coli ATCC 25922, P. aeruginosa ATCC 27853, or Candida albicans were added to the wells in full strength Mueller Hinton broth (BBL 11443) from a mid-log culture. The inoculum is standardized spectrophotometrically at 600 nm and is verified by colony counts. The plates are incubated for 16-20 hours at 37° C., and the minimal inhibitory concentration (MIC) for each peptide is determined. Minimal inhibitory concentration is defined as the lowest concentration of peptide which produces a clear well in the microtiter plate.
(In general: In broth dilution the organism is exposed to a series of concentrations in liquid medium.)

A further experiment deals with Candida albicans. Briefly: Minimal Inhibitory Concentration, microtiter broth dilution assay. Conditions: Mueller Hinton broth, 16-20 hours at 37° C., lowest concentration giving a clear well.
Excerpt: as §1

For another experiment, the system named is E. coli ATCC 25922. Briefly: Minimal Inhibitory Concentration, microtiter broth dilution antibacterial assay. Conditions: Mueller Hinton broth, 16-20 hours at 37° C., lowest concentration giving a clear well.
Excerpt: as §1

The subject of experiment [2] is S. aureus strain ATCC 25923. The description is as above. The note with it: S. aureus ATCC 25923; Mueller Hinton broth; 16-20 hours at 37° C.; lowest concentration giving a clear well.
Excerpt: as §1

With `CC[C@H](C)[C@H](NC(=O)CNC(=O)[C@H](CCCNC(=N)N)NC(=O)[C@@H](N)CCCNC(=N)N)C(=O)NCC(=O)N[C@@H](CCCCN)C(=O)N[C@@H](Cc1ccccc1)C(=O)N[C@@H](CC(C)C)C(=O)N[C@@H](CCCCN)C(=O)N[C@@H](CCCCN)C(=O)N[C@@H](C)C(=O)N[C@@H](CCCCN)C(=O)N[C@@H](CCCCN)C(=O)N[C@@H](Cc1ccccc1)C(=O)NCC(=O)N[C@@H](CCCCN)C(=O)N[C@@H](C)C(=O)N[C@@H](Cc1ccccc1)C(=O)N[C@H](C(=O)N[C@@H](CCCCN)C(=O)N[C@H](C(=O)N[C@@H](CC(C)C)C(=O)N[C@@H](CCCCN)C(=O)N[C@@H](CCCCN)C(=O)NCC(N)=O)[C@@H](C)CC)C(C)C` [(SEQ ID NO: 13)-NH2] (H-RRGIGKFLKKAKKFGKAFVKILKKG-NH2), the “Minimal Inhibitory Concentration P. aeruginosa” value in experiment [1] turned out to be 4 µg/mL. The “Minimal Inhibitory Concentration C. albicans” value with Candida albicans was 64 µg/mL.
`CC[C@H](C)[C@H](N)C(=O)N[C@@H](CCCCN)C(=O)N[C@@H](CCCCN)C(=O)N[C@@H](Cc1ccccc1)C(=O)N[C@@H](CC(C)C)C(=O)N[C@@H](CCCCN)C(=O)N[C@@H](CCCCN)C(=O)N[C@@H](C)C(=O)N[C@@H](CCCCN)C(=O)N[C@@H](CCCCN)C(=O)N[C@@H](Cc1ccccc1)C(=O)NCC(=O)N[C@@H](CCCCN)C(=O)N[C@@H](CCCCN)C(=O)N[C@@H](Cc1ccccc1)C(=O)N[C@@H](CCCCN)C(=O)N[C@@H](CCCCN)C(=O)N[C@H](C(=O)N[C@@H](CC(C)C)C(=O)N[C@@H](CCCCN)C(=O)N[C@@H](CCCCN)C(N)=O)[C@@H](C)CC` [(SEQ ID NO: 2)-NH2] (H-IKKFLKKAKKFGKKFKKILKK-NH2): the “Minimal Inhibitory Concentration P. aeruginosa” value in experiment [1] was determined as 8 µg/mL. Besides, the “Minimal Inhibitory Concentration E. coli” value in the experiment with E. coli ATCC 25922 is 16 µg/mL.
For `CC[C@H](C)[C@H](NC(C)=O)C(=O)NCC(=O)N[C@@H](CCCCN)C(=O)N[C@@H](Cc1ccccc1)C(=O)N[C@@H](CC(C)C)C(=O)N[C@@H](CCCCN)C(=O)N[C@@H](CCCCN)C(=O)N[C@@H](C)C(=O)N[C@@H](CCCCN)C(=O)N[C@@H](CCCCN)C(=O)N[C@@H](Cc1ccccc1)C(=O)NCC(=O)N[C@@H](CCCCN)C(=O)N[C@@H](C)C(=O)N[C@@H](Cc1ccccc1)C(=O)N[C@H](C(=O)N[C@@H](CCCCN)C(=O)N[C@H](C(=O)N[C@@H](CC(C)C)C(=O)N[C@@H](CCCCN)C(=O)N[C@@H](CCCCN)C(N)=O)[C@@H](C)CC)C(C)C` [X- (SEQ ID NO: 1)-NH2] (Ac-IGKFLKKAKKFGKAFVKILKK-NH2), the “Minimal Inhibitory Concentration E. coli” value in the experiment on E. coli ATCC 25922 was 8 µg/mL. Also, the “Minimal Inhibitory Concentration S. aureus” value in experiment [2] worked out at 8 µg/mL. Besides, in the experiment on Candida albicans, the “Minimal Inhibitory Concentration C. albicans” value was determined as 128 µg/mL.
As to `CC[C@H](C)[C@H](NC(=O)[C@H](C)NC(=O)[C@H](CCCCN)NC(=O)CNC(=O)[C@@H](NC(=O)[C@H](CCCCN)NC(=O)[C@H](CCCCN)NC(=O)[C@H](C)NC(=O)[C@H](CCCCN)NC(=O)[C@H](CCCCN)NC(=O)[C@H](CC(C)C)NC(=O)[C@@H](NC(=O)[C@H](CCCCN)NC(=O)CNC(=O)[C@@H](N)Cc1ccccc1)[C@@H](C)CC)[C@@H](C)CC)C(=O)N[C@H](C(=O)N[C@@H](CCCCN)C(=O)N[C@@H](Cc1ccccc1)C(=O)N[C@@H](CC(C)C)C(=O)N[C@@H](CCCCN)C(=O)N[C@@H](CCCCN)C(N)=O)C(C)C` [(SEQ ID NO: 23)-NH2] (H-FGKILKKAKKIGKAIVKFLKK-NH2), in the experiment on E. coli ATCC 25922, the “Minimal Inhibitory Concentration E. coli” value worked out at 32 µg/mL. The “Minimal Inhibitory Concentration S. aureus” value in experiment [2] was 16 µg/mL. For the same compound, the “Minimal Inhibitory Concentration C. albicans” value in the experiment with Candida albicans amounted to 128 µg/mL.
`CC[C@H](C)[C@H](NC(=O)CNC(=O)[C@H](CCCNC(=N)N)NC(=O)[C@@H](N)CCCNC(=N)N)C(=O)NCC(=O)N[C@@H](CCCCN)C(=O)N[C@@H](Cc1ccccc1)C(=O)N[C@@H](CC(C)C)C(=O)N[C@@H](CCCCN)C(=O)N[C@@H](CCCCN)C(=O)N[C@@H](C)C(=O)N[C@@H](CCCCN)C(=O)N[C@@H](CCCCN)C(=O)N[C@@H](Cc1ccccc1)C(=O)NCC(=O)N[C@@H](CCCCN)C(=O)N[C@@H](C)C(=O)N[C@@H](Cc1ccccc1)C(=O)N[C@H](C(=O)N[C@@H](CCCCN)C(=O)N[C@H](C(=O)N[C@@H](CC(C)C)C(=O)N[C@@H](CCCCN)C(=O)N[C@@H](CCCCN)C(N)=O)[C@@H](C)CC)C(C)C` [(SEQ ID NO: 12)-NH2] (H-RRGIGKFLKKAKKFGKAFVKILKK-NH2): in experiment [1], the “Minimal Inhibitory Concentration P. aeruginosa” value amounted to 32 µg/mL. Also, the “Minimal Inhibitory Concentration C. albicans” value with Candida albicans came out at 128 µg/mL.
In the case of `CC[C@H](C)[C@H](NC(=O)CN)C(=O)NCC(=O)N[C@@H](CCCCN)C(=O)N[C@H](C(=O)N[C@@H](CC(C)C)C(=O)N[C@@H](CCCCN)C(=O)N[C@@H](CCCCN)C(=O)N[C@@H](C)C(=O)N[C@@H](CCCCN)C(=O)N[C@@H](CCCCN)C(=O)N[C@H](C(=O)NCC(=O)N[C@@H](CCCCN)C(=O)N[C@@H](C)C(=O)N[C@H](C(=O)N[C@H](C(=O)N[C@@H](CCCCN)C(=O)N[C@H](C(=O)N[C@@H](CC(C)C)C(=O)N[C@@H](CCCCN)C(=O)N[C@@H](CCCCN)C(N)=O)[C@@H](C)CC)C(C)C)[C@@H](C)CC)[C@@H](C)CC)[C@@H](C)CC` [(SEQ ID NO: 4)-NH2] (H-GIGKILKKAKKIGKAIVKILKK-NH2), the “Minimal Inhibitory Concentration P. aeruginosa” value in experiment [1] was 4 µg/mL. The “Minimal Inhibitory Concentration S. aureus” value in experiment [2] came out at 16 µg/mL. Further, in the experiment on Candida albicans, the “Minimal Inhibitory Concentration C. albicans” value amounted to 64 µg/mL.
For `CC[C@H](C)[C@H](NC(=O)CN)C(=O)NCC(=O)N[C@@H](CCCCN)C(=O)N[C@@H](Cc1ccccc1)C(=O)N[C@@H](CC(C)C)C(=O)N[C@@H](CCCCN)C(=O)N[C@@H](CCCCN)C(=O)N[C@@H](C)C(=O)N[C@@H](CCCCN)C(=O)N[C@@H](CCCCN)C(=O)N[C@@H](Cc1ccccc1)C(=O)NCC(=O)N[C@@H](CCCCN)C(=O)N[C@@H](C)C(=O)N[C@@H](Cc1ccccc1)C(=O)N[C@H](C(=O)N[C@@H](CCCCN)C(=O)N[C@H](C(=O)N[C@@H](CC(C)C)C(=O)N[C@@H](CCCCN)C(=O)N[C@@H](CCCCN)C(=O)N[C@@H](CCCNC(=N)N)C(N)=O)[C@@H](C)CC)C(C)C` [(SEQ ID NO: 8)-NH2] (H-GIGKFLKKAKKFGKAFVKILKKR-NH2), in that order: 4 µg/mL, 16 µg/mL and 64 µg/mL.
`CC[C@H](C)[C@H](NC(=O)CN)C(=O)N[C@H](C(=O)NCC(=O)N[C@@H](CCCCN)C(=O)N[C@@H](Cc1ccccc1)C(=O)N[C@@H](CC(C)C)C(=O)N[C@@H](CCCCN)C(=O)N[C@@H](CCCCN)C(=O)N[C@@H](C)C(=O)N[C@@H](CCCCN)C(=O)N[C@@H](CCCCN)C(=O)N[C@@H](Cc1ccccc1)C(=O)NCC(=O)N[C@@H](CCCCN)C(=O)N[C@@H](C)C(=O)N[C@@H](Cc1ccccc1)C(=O)N[C@H](C(=O)N[C@@H](CCCCN)C(=O)N[C@H](C(=O)N[C@@H](CC(C)C)C(=O)N[C@@H](CCCCN)C(=O)N[C@@H](CCCCN)C(N)=O)[C@@H](C)CC)C(C)C)[C@@H](C)CC` [(SEQ ID NO: 16)-NH2] (H-GIIGKFLKKAKKFGKAFVKILKK-NH2): the “Minimal Inhibitory Concentration E. coli” value in the experiment with E. coli ATCC 25922 stood at 8 µg/mL. The “Minimal Inhibitory Concentration S. aureus” value in experiment [2] is 4 µg/mL. The “Minimal Inhibitory Concentration C. albicans” value with Candida albicans stood at 64 µg/mL.
Turning to `CC[C@H](C)[C@H](NC(=O)CN)C(=O)NCC(=O)N[C@@H](CCCCN)C(=O)N[C@@H](Cc1ccccc1)C(=O)N[C@@H](CC(C)C)C(=O)N[C@@H](CCCCN)C(=O)N[C@@H](CCCCN)C(=O)N[C@@H](C)C(=O)N[C@@H](CCCCN)C(=O)N[C@@H](CCCCN)C(=O)N[C@@H](Cc1ccccc1)C(=O)NCC(=O)N[C@@H](CCCCN)C(=O)N[C@@H](C)C(=O)N[C@@H](Cc1ccccc1)C(=O)N[C@H](C(=O)N[C@@H](CCCCN)C(=O)N[C@H](C(=O)N[C@H](C(=O)N[C@@H](CCCCN)C(=O)N[C@@H](CCCCN)C(N)=O)C(C)C)[C@@H](C)CC)C(C)C` [(SEQ ID NO: 6)-NH2] (H-GIGKFLKKAKKFGKAFVKIVKK-NH2), in experiment [1], the “Minimal Inhibitory Concentration P. aeruginosa” value was found to be 16 µg/mL. For the same compound, the “Minimal Inhibitory Concentration E. coli” value with E. coli ATCC 25922 was determined as 16 µg/mL. Moreover, the “Minimal Inhibitory Concentration S. aureus” value in experiment [2] was 32 µg/mL.
